Results on 1 substance are retold here after patent US10314877B2, “Method for lymph drainage” (ABOCA S.P.A. SOCIETÀ AGRICOLA, priority 2015, dated 2019).

Experiment [1] concerns Human Dermal Lymphatic Endothelial Cells (HDLEC). As to the kind of experiment: Vascular (endothelial) permeability test, FITC-dextran passage through lymphatic endothelial monolayer. Format: cell-based. The note with it: IL-1β 10 ng/ml 1 h, no extract. How it is done: In box A of FIG. 1 what is shown is the model in which lymphatic or hematic endothelial cells are measured in culture on a semi-permeable membrane, with presence of culture medium above and below said membrane, so as to allow the passage of components present in the medium when the cells are not strictly linked to one another, and FITCH-dextran molecules are inserted in the culture medium above the cells.
Quantification by means of fluorescence of the FITC-dextran complex provides a measure of the permeability of the endothelium. […]
The authors have therefore used a model, shown schematically in FIG. 1, to study the effects of various plant extracts on endothelia of blood or lymphatic vessels. […] The degree of permeability has been determined by way of experiment by measuring the amount of fluorescent probe that crosses the endothelial barrier separating the two compartments representing, respectively, the lumen of the vessel (above the semi-permeable membrane) and the interstice (below the semi-permeable membrane). […]
The samples were assessed in 2-3 concentrations vs. vehicle alone on the cell cultures, untreated and treated with IL1beta (10 ng/ml), to understand if they have any effect in themselves on undamaged cells and if the tested substances are able to reverse the rise in permeability induced by IL1beta. […]

Experiment [2] relates to occludin and ZO-1 in confluent HDLEC and HDBEC cells. Description: Immunofluorescence analysis of tight junction proteins occludin and ZO-1. In kind it is cell-based, human. The note with it: IL-1beta alone 10 ng/ml, 1 hour. As to the method: FIG. 11 reports the data of immunofluorescence analyses of occludin (upper boxes) and of the protein ZO-1 (lower boxes) in confluent HDLEC (A) and HDBEC (B) cells treated with the following stimuli: no stimulus, IL-1beta alone (10 ng/ml, 1 hour), mixture of the invention alone (10 micrograms/ml 18 hours); mixture of the invention (18 hours)+IL-1beta (1 hour). The confocal images were taken with 60× enlargement, the scale bar=10 micrometers.
Occludin and ZO-1 were assessed as markers representative of tight endothelial junctions. The confluent cells express these markers, whereas they are reduced following treatment with IL-1beta.
The proteins of occluding tight junction and zona occludens 1 (ZO-1) expressed on the cell surface were visualised using confocal analysis. The cells were plated 5×10^4 on 1 cm circular glass slides. After 24 hours the cells were washed and treated with the mentioned stimulants. The immunofluorescence analysis was carried out as reported in the materials and methods of Monti et al, Pharmacol Res 2013; 76:171-81.

For “IL-1β: interleukin beta, inflammatory agent used to raise endothelial permeability”, the “permeability of endothelial cells treated with IL-1β alone (healthy cells = 100%)” value in experiment [1] is recorded as “approximately 160%”. Besides, the “tight junction markers occludin and ZO-1” value in experiment [2] is “reduced”.
